Source: ChEMBL document CHEMBL3425446, “Isolation, semi-synthesis and bio-evaluation of spatane derivatives from the brown algae Stoechospermum marginatum” (Bioorg Med Chem Lett, 2015)
Converted amounts (≈) assume the structure as drawn. The source made the active and inactive calls. The calls are words filed in the database; no cut-off is given here.

Experiments:
[1] = Cytotoxicity against human HL60 cells assessed as decrease in cell number after 24 hrs by MTT assay; type: functional, cell-based; settings: HL-60, 24 h
[2] = test system: Micrococcus luteus; experiment: Antibacterial activity against Micrococcus luteus assessed as growth inhibition at 0.5 mg/ml after 24 hrs by well diffusion method; type: functional; settings: read-out: DIZ
[3] = Cytotoxicity against mouse B16F10 cells assessed as decrease in cell number after 24 hrs by MTT assay; type: functional, cell-based; settings: B16-F10, 24 h
[4] = test system: THP-1; experiment: Cytotoxicity against human THP1 cells assessed as decrease in cell number after 24 hrs by MTT assay; type: functional, cell-based; settings: THP-1, 24 h
[5] = test system: Escherichia coli; experiment: Antibacterial activity against Escherichia coli assessed as growth inhibition at 0.5 mg/ml after 24 hrs by well diffusion method; type: functional; settings: read-out: DIZ
[6] = Cytotoxicity against human U937 cells assessed as decrease in cell number after 24 hrs by MTT assay; type: functional, cell-based; settings: U-937, 24 h
[7] = test system: Micrococcus luteus; experiment: Antibacterial activity against Micrococcus luteus assessed as compound concentration required to complete growth inhibition at 8 hrs by tube dilution method; type: functional
[8] = test system: COLO 205; experiment: Cytotoxicity against human COLO205 cells assessed as decrease in cell number after 24 hrs by MTT assay; type: functional, cell-based; settings: COLO 205, 24 h
[9] = test system: Klebsiella pneumoniae; experiment: Antibacterial activity against Klebsiella pneumoniae assessed as growth inhibition at 0.5 mg/ml after 24 hrs by well diffusion method; type: functional; settings: read-out: DIZ
[10] = test system: Aspergillus terreus; experiment: Antifungal activity against Aspergillus terreus assessed as growth inhibition at 0.5 mg/ml after 48 hrs by well diffusion method; type: functional, organism-based
[11] = test system: Bacillus subtilis; experiment: Antibacterial activity against Bacillus subtilis assessed as compound concentration required to complete growth inhibition at 8 hrs by tube dilution method; type: functional
[12] = test system: Escherichia coli; experiment: Antibacterial activity against Escherichia coli assessed as compound concentration required to complete growth inhibition at 8 hrs by tube dilution method; type: functional
[13] = test system: Klebsiella pneumoniae; experiment: Antibacterial activity against Klebsiella pneumoniae assessed as compound concentration required to complete growth inhibition at 8 hrs by tube dilution method; type: functional
[14] = test system: Bacillus subtilis; experiment: Antibacterial activity against Bacillus subtilis assessed as growth inhibition at 0.5 mg/ml after 24 hrs by well diffusion method; type: functional; settings: read-out: DIZ
[15] = test system: Aspergillus niger; experiment: Antifungal activity against Aspergillus niger assessed as growth inhibition at 0.5 mg/ml after 48 hrs by well diffusion method; type: functional, organism-based
[16] = test system: Aspergillus fumigatus; experiment: Antifungal activity against Aspergillus fumigatus assessed as growth inhibition at 0.5 mg/ml after 48 hrs by well diffusion method; type: functional, organism-based
[17] = test system: COLO 205; experiment: Cytotoxicity against human COLO205 cells assessed as growth inhibition at 200 ug/ml after 24 hrs by MTT assay; type: functional, cell-based
[18] = test system: HL-60; experiment: Cytotoxicity against human HL60 cells assessed as growth inhibition at 200 ug/ml after 24 hrs by MTT assay; type: functional, cell-based

MIC [7] [µg/mL] | MIC [11] [µg/mL] | MIC [12] [µg/mL] | MIC [13] [µg/mL] | Compound | IC50 [1] [µg/mL] | zone of inhibition at 500 µg/mL [2] [mm] | IC50 [3] [µg/mL] | IC50 [4] [µg/mL] | zone of inhibition at 500 µg/mL [5] [mm] | IC50 [6] [µg/mL] | IC50 [8] [µg/mL] | zone of inhibition at 500 µg/mL [9] [mm] | zone of inhibition [10] [mm] | zone of inhibition at 500 µg/mL [14] [mm] | zone of inhibition [15] [mm] | zone of inhibition [16] [mm] | growth inhibition (GI) [17] | growth inhibition (GI) [18]
50 (≈ 133 µM) | 100 (≈ 266 µM) | 100 (≈ 266 µM) | 100 (≈ 266 µM) | C=C(C(=O)/C=C/C(C)(O)COC(C)=O)[C@@H]1C[C@@H](O)[C@@]2(C)[C@@H]1[C@@H]1[C@H](C)CC[C@@H]12 (stereo not given in full) | 51.8 (≈ 138 µM) | 16.7 | 3.28 (≈ 8.71 µM) | 15.2 (≈ 40.3 µM) | 17 | 9.58 (≈ 25.4 µM) | 35.1 (≈ 93.3 µM) | 14 | – | 15.7 | – | – | – | –
100 (≈ 328 µM) | 100 (≈ 328 µM) | 100 (≈ 328 µM) | 50 (≈ 164 µM) | C=C(C[C@@H](O)C=C(C)C)[C@@H]1C[C@@H](O)[C@@]2(C)[C@@H]1[C@@H]1[C@H](C)CC[C@@H]12 | 41.6 (≈ 137 µM) | 14 | 46.7 (≈ 153 µM) | 53 (≈ 174 µM) | 12.3 | 51.3 (≈ 168 µM) | 72.2 (≈ 237 µM) | 16.7 | – | 13.7 | – | – | – | –
100 (≈ 328 µM) | 100 (≈ 328 µM) | 100 (≈ 328 µM) | 100 (≈ 328 µM) | C=C(C/C=C/C(C)(C)O)[C@@H]1C[C@@H](O)[C@@]2(C)[C@@H]1[C@@H]1[C@H](C)CC[C@@H]12 | – | 16.3 | 174 (≈ 572 µM) | 50 (≈ 164 µM) | 12.7 | 42.3 (≈ 139 µM) | – | 16 | – | 13.7 | – | – | inactive | inactive
400 | 200 | 200 | 200 | C=C(C(O)/C=C/C(C)(O)COC(C)=O)[C@@H]1C[C@@H](O)[C@@]2(C)[C@@H]1[C@@H]1[C@H](C)CC[C@@H]12 (mixture of isomers) | – | 12 | 99.8 | 67 | 13 | 144 | – | 12.3 | – | 10.3 | – | – | inactive | inactive

The remaining lines, values behind:

Compound | MIC [7] [µg/mL] | MIC [11] [µg/mL] | MIC [12] [µg/mL] | MIC [13] [µg/mL] | IC50 [1] [µg/mL] | zone of inhibition at 500 µg/mL [2] [mm] | IC50 [3] [µg/mL] | IC50 [4] [µg/mL] | zone of inhibition at 500 µg/mL [5] [mm] | IC50 [6] [µg/mL] | IC50 [8] [µg/mL] | zone of inhibition at 500 µg/mL [9] [mm] | zone of inhibition [10] [mm] | zone of inhibition at 500 µg/mL [14] [mm] | zone of inhibition [15] [mm] | zone of inhibition [16] [mm] | growth inhibition (GI) [17] | growth inhibition (GI) [18]
C=C(C(=O)/C=C/C(C)=O)[C@@H]1CC(=O)[C@@]2(C)[C@@H]1[C@@H]1[C@H](C)CC[C@@H]12 | 50 (≈ 166 µM) | 50 (≈ 166 µM) | 50 (≈ 166 µM) | 50 (≈ 166 µM) | 48.4 (≈ 161 µM) | 0 | 3.62 (≈ 12.1 µM) | 18.1 (≈ 60.3 µM) | 11 | 7.52 (≈ 25 µM) | 32 (≈ 107 µM) | 11.3 | 19.3 | 10.3 | 19.3 | 22 | – | –
C=C(C(O)/C=C/C(C)=O)[C@@H]1C[C@@H](O)[C@@]2(C)[C@@H]1[C@@H]1[C@H](C)CC[C@@H]12 (stereo not given in full) | 200 (≈ 657 µM) | 200 (≈ 657 µM) | 200 (≈ 657 µM) | 100 (≈ 328 µM) | 42.3 (≈ 139 µM) | 12.7 | 17 (≈ 55.9 µM) | 38.9 (≈ 128 µM) | 17.3 | 13 (≈ 42.8 µM) | 42.1 (≈ 138 µM) | 11.7 | – | 12 | – | – | – | –
C=C(C(/C=C/C(C)(O)COC(C)=O)OC(C)=O)[C@@H]1C[C@@H](OC(C)=O)[C@@]2(C)[C@@H]1[C@@H]1[C@H](C)CC[C@@H]12 (stereo not given in full) | 100 (≈ 216 µM) | 100 (≈ 216 µM) | 100 (≈ 216 µM) | 200 (≈ 432 µM) | – | 17.3 | 54.1 (≈ 117 µM) | 188 (≈ 407 µM) | 21.3 | 38.4 (≈ 83.1 µM) | – | 16.3 | – | 18 | – | – | inactive | inactive
C=C(C(=O)/C=C/C(C)(O)COC(C)=O)[C@@H]1C[C@@H](OC(C)=O)[C@@]2(C)[C@@H]1[C@@H]1[C@H](C)CC[C@@H]12 (stereo not given in full) | 100 (≈ 239 µM) | 100 (≈ 239 µM) | 200 (≈ 478 µM) | 200 (≈ 478 µM) | 35.6 (≈ 85.1 µM) | 21.7 | 4.41 (≈ 10.5 µM) | 33.9 (≈ 80.9 µM) | 23.7 | 8.8 (≈ 21 µM) | 26.8 (≈ 64 µM) | 19.7 | – | 21.7 | – | – | – | –
C=C(CC(C=C(C)C)OC(C)=O)[C@@H]1C[C@@H](O)[C@@]2(C)[C@@H]1[C@@H]1[C@H](C)CC[C@@H]12 (stereo not given in full) | 200 (≈ 577 µM) | 400 (≈ 1150 µM) | 200 (≈ 577 µM) | 200 (≈ 577 µM) | 198 (≈ 572 µM) | 10.3 | 73.2 (≈ 211 µM) | 50.3 (≈ 145 µM) | 10.7 | 60 (≈ 173 µM) | 87.3 (≈ 252 µM) | 11.7 | – | 0 | – | – | – | –
